Reference: patent US11608323B2 (SYNGENTA LIMITED, priority 2013, dated 2023)

Legend:
Format in all cases: in vivo
ABUTH [1] = assay: Pre-emergence herbicidal activity, glasshouse pot test; settings: rate 1000 g/Ha, evaluated after 13 days, scale 0-5
Outline: (§1)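 Compounds are applied pre-emergence as an aqueous spray, formulated in 50:50 acetone/water containing 0.5% Tween 20, to pots sown one day earlier. Plants grow in a controlled glasshouse and are scored 13 days later for damage from 0 to 5.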

ALOMY [2] = assay: as above; settings: rate 1000 g/Ha, evaluated after 13 days, scale 0-5
Outline: as §1

AMARE [3] = assay: as above; settings: rate 1000 g/Ha, evaluated after 13 days, scale 0-5
Outline: as §1

ECHCG [4] = assay: as above; settings: rate 1000 g/Ha, evaluated after 13 days, scale 0-5
Outline: as §1

SETFA [5] = assay: as above; settings: rate 1000 g/Ha, evaluated after 13 days, scale 0-5
Outline: as §1

ZEAMX [6] = assay: as above; settings: rate 1000 g/Ha, evaluated after 13 days, scale 0-5
Outline: as §1

ABUTH [7] = assay: Post-emergence herbicidal activity, glasshouse pot test; settings: Abutilon theophrasti; application post-emergence; rate 1000 g/Ha; evaluated after 13 days
Outline: (§2)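 Seeds were sown in standard soil and cultivated for 8 days under controlled glasshouse conditions. Seedlings were then sprayed with an aqueous solution of the formulated compound containing 0.5% Tween 20. Injury was rated after a further 13 days, where 5 indicated total damage.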

ALOMY [8] = assay: as above; settings: Alopecurus myosuroides; application post-emergence; rate 1000 g/Ha; evaluated after 13 days
Outline: as §2

AMARE [9] = assay: as above; settings: Amaranthus retroflexus; application post-emergence; rate 1000 g/Ha; evaluated after 13 days
Outline: as §2

ECHCG [10] = assay: as above; settings: Echinochloa crus-galli; application post-emergence; rate 1000 g/Ha; evaluated after 13 days
Outline: as §2

SETFA [11] = assay: as above; settings: Setaria faberi; application post-emergence; rate 1000 g/Ha; evaluated after 13 days
Outline: as §2

ZEAMX [12] = assay: as above; settings: Zea mays; application post-emergence; rate 1000 g/Ha; evaluated after 13 days
Outline: as §2

| SMILES | ABUTH damage score, application pre-emergence (ABUTH [1]) | ALOMY damage score, application pre-emergence (ALOMY [2]) | AMARE damage score, application pre-emergence (AMARE [3]) | ECHCG damage score, application pre-emergence (ECHCG [4]) | SETFA damage score, application pre-emergence (SETFA [5]) | ZEAMX damage score, application pre-emergence (ZEAMX [6]) | Post-emergence herbicidal activity ABUTH (damage score 0-5) (ABUTH [7]) | Post-emergence herbicidal activity ALOMY (damage score 0-5) (ALOMY [8]) | Post-emergence herbicidal activity AMARE (damage score 0-5) (AMARE [9]) | Post-emergence herbicidal activity ECHCG (damage score 0-5) (ECHCG [10]) | Post-emergence herbicidal activity SETFA (damage score 0-5) (SETFA [11]) | Post-emergence herbicidal activity ZEAMX (damage score 0-5) (ZEAMX [12]) |
| --- | --- | --- | --- | --- | --- | --- | --- | --- | --- | --- | --- | --- |
| CN1C(=O)N(c2cc(C(F)(F)F)ccn2)C(O)C1C(F)(F)F (stereo not drawn) [Compound A33, 4-hydroxy-1-methyl-5-(trifluoromethyl)-3-[4-(trifluoromethyl)-2-pyridyl]imidazolidin-2-one] | 4 | 3 | 5 | 2 | 3 | 0 | 5 | 4 | 3 | 1 | 2 | 1 |
| CON1C(=O)N(c2cc(C(F)(F)F)c(C)cn2)C(O)C1C (single isomer, unassigned) [Compound A58] | 5 | 4 | 5 | 3 | 3 | 4 | 5 | 4 | 5 | 5 | 5 | 4 |
| C#CCOC1C(O)N(c2cc(C(F)(F)F)ccn2)C(=O)N1C (stereo not drawn) [Compound A44] | 5 | 4 | 5 | 5 | 4 | 2 | 5 | 4 | 5 | 5 | 5 | 4 |
| CC1C(O)N(c2cc(C(C)(F)F)ccn2)C(=O)N1C (stereo not drawn) [Compound A60] | 5 | 1 | 5 | 1 | 1 | 0 | 5 | 4 | 5 | 4 | 3 | 3 |
| CC1C(O)N(c2cc(C(F)(F)F)c(-c3cncnc3)cn2)C(=O)N1C (stereo not drawn) [Compound A11] | 5 | 4 | 5 | 4 | 5 | 3 | 5 | 4 | 5 | 5 | 5 | 4 |
| CCOC1C(O)N(c2cc(C(C)(F)F)ccn2)C(=O)N1C (stereo not drawn) [Compound A59] | 5 | 4 | 5 | 3 | 3 | 1 | 5 | 5 | 5 | 5 | 5 | 4 |
| Cc1cnc(N2C(=O)N(C)C(C)C2O)cc1C(F)(F)F (single isomer, unassigned) [Compound A51] | 5 | 4 | 5 | 5 | 4 | 3 | 5 | 5 | 5 | 5 | 5 | 5 |
| CCC1C(O)N(c2cc(C(F)(F)F)ccn2)C(=O)N1OC (single isomer, unassigned) [Compound A28] | 3 | 4 | 5 | 4 | 5 | 2 | 4 | 5 | 4 | 5 | 5 | 2 |
| C=CCC1C(O)N(c2cc(C(F)(F)F)ccn2)C(=O)N1C (stereo not drawn) [Compound A32, 5-allyl-4-hydroxy-1-methyl-3-[4-(trifluoromethyl)-2-pyridyl]imidazolidin-2-one] | 5 | 4 | 5 | 5 | 4 | 2 | 5 | 5 | 5 | 5 | 5 | 2 |
| CCOC1C(OC(=O)[C@@H]2[C@@H](C=C(Cl)Cl)C2(C)C)N(c2cc(C(F)(F)F)ccn2)C(=O)N1C (stereo partly drawn) [Compound A98] | 0 | 0 | 0 | 0 | 0 | 0 | 0 | 0 | 4 | 0 | 0 | 1 |
| CCOC1C(O)N(c2cc(C(F)(F)F)c(C)cn2)C(=O)N1C (stereo not drawn) [Compound A52] | 5 | 4 | 5 | 5 | 4 | 2 | 5 | 5 | 5 | 5 | 5 | 5 |
| CCOC1C(O)N(c2cc(C(F)(F)F)ccn2)C(=O)N1CC (stereo not drawn) [Compound A29] | 5 | 1 | 5 | 1 | 2 | 1 | 5 | 4 | 5 | 4 | 3 | 2 |
| CON1CC(O)N(c2cc(C(F)(F)F)ccn2)C1=O (stereo not drawn) [Compound A36] | 1 | 2 | 5 | 4 | 2 | 0 | 1 | 4 | 5 | 5 | 3 | 2 |
